The subject of data set [1] is Mus musculus. Kind of data set: Antidiabetic activity against C57BL/Ks db/db mouse assessed as reduction in fasting blood glucose level at 1 uM/kg, sc administered once every 2 days for 2 weeks by glucometer analysis. Format: functional, organism-based.
Data set [2] deals with Mus musculus. As to the kind of experiment: Antidiabetic activity against over-night fasted C57BL/ks db/db mouse assessed as suppression of increased blood glucose concentration at 1 uM/kg, sc pretreated with compound for 4 weeks followed by insulin stimulation and measured for 90 mins by insulin tolerance test. Format: functional, organism-based. The conditions noted are these: time 40410.0 min.

Data set [3] concerns the target T1, Tyrosine-protein phosphatase non-receptor type 2 (Homo sapiens) (UniProt P17706).
T1 sequence (whole entry): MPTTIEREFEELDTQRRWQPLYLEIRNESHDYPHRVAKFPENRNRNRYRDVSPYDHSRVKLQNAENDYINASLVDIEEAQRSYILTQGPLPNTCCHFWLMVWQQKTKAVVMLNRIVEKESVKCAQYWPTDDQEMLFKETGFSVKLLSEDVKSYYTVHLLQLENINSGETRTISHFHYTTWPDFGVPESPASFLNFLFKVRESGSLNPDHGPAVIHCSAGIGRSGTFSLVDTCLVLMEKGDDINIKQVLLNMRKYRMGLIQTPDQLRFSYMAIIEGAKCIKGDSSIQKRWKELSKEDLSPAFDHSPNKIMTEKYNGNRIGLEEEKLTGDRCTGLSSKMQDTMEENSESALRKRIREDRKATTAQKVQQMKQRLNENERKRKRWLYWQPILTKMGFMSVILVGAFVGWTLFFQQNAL
As to the kind of experiment: Inhibition of recombinant human TC-PTP (1 to 314 residues) expressed in baculovirus infected insect cells using pNPP as substrate assessed as substrate hydrolysis at 50 umol/L relative to control. The following applies: Insect cell, dose 50.0 µmol/L.

The species entered for data set [4] is Homo sapiens. Kind of data set: Selectivity index, ratio of IC50 for inhibition of recombinant human TC-PTP (1 to 314 residues) expressed in baculovirus infected insect cells to IC50 for inhibition of N-terminal His-tagged recombinant human PTP1B expressed in Escherichia coli.
For data set [5], the system named is Mus musculus. Kind of data set: Antidiabetic activity against C57BL/Ks db/db mouse assessed as redcution in fasting blood glucose level at 1 umol/kg, sc administered once a week and measured on day 8 by glucometer analysis (reference value: 27.7 +/- 3.7 […]). In kind it is functional. The following applies: dose 1 µmol/kg, time 8 day.
Data set [6] deals with T2, carboxypeptidase A (Homo sapiens, UniProt P15085).
T2 sequence (P15085 whole entry): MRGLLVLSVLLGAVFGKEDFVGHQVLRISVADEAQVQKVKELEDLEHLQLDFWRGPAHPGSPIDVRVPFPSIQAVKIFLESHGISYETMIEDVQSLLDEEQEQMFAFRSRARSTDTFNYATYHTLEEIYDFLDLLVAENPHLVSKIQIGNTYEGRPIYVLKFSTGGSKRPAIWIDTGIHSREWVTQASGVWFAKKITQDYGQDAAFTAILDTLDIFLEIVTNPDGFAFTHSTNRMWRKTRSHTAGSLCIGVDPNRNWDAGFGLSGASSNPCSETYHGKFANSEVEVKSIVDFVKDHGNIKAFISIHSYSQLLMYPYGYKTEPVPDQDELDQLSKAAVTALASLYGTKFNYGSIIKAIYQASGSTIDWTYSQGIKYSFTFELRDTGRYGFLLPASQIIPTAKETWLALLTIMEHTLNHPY
As to the kind of experiment: Stability of compound assessed as carboxypeptidase A (unknown origin) mediated compound degradation by measuring half-life by RP-HPLC analysis. Format: ADME.

Data set [7] relates to Mus musculus. As to the kind of experiment: Antidiabetic activity against C57BL/Ks db/db mouse assessed as redcution in fasting blood glucose level at 1 umol/kg, sc administered once a week and measured on day 15 by glucometer analysis (reference value: 27.3 +/- 2.4 […]). Format: functional. The following applies: dose 1 µmol/kg, time 15 day.
Data set [8] concerns Mus musculus. As to the kind of experiment: Antidiabetic activity against sc dosed C57BL/Ks db/db mouse assessed as reduction in glucagon level at 1 umol/kg by ELISA analysis. Format: functional, organism-based. The conditions noted are these: dose 1.0 µmol/kg.
Data set [9] relates to Mus musculus. As to the kind of experiment: Antidiabetic activity against sc dosed C57BL/Ks db/db mouse assessed as reduction in serum insulin level at 1 umol/kg by ELISA analysis. The following applies: dose 1.0 µmol/kg. Format: functional, organism-based. For orientation: An ELISA detects its analyte on a solid surface through an enzyme-linked reagent.
Data set [10] concerns Mus musculus. Kind of data set: Antidiabetic activity against over-night fasted C57BL/ks db/db mouse assessed as suppression of increased blood glucose concentration at 1 uM/kg, sc pretreated with compound for 4 weeks followed by oral glucose stimulation and measured upto 120 mins by oral glucose tolerance test. Format: functional, organism-based. The following applies: time 40440.0 min.

Data set [11] has as its system Mus musculus. Kind of data set: Antidiabetic activity against C57BL/Ks db/db mouse assessed as reduction in fasting blood glucose level at 1 uM/kg, sc administered once every 3 days for 2 weeks by glucometer analysis. Format: functional, organism-based.
For data set [12], the system named is Mus musculus. As to the kind of experiment: Antidiabetic activity against C57BL/Ks db/db mouse assessed as reduction in fasting blood glucose level at 1 uM/kg, sc administered once daily and measured on day 8 by glucometer analysis. In kind it is functional, organism-based. The conditions noted are these: time 8.0 day.

Here are results for two molecules from ChEMBL document CHEMBL5316338, “Discovery of Novel PTP1B Inhibitors with Once-Weekly Therapeutic Potential for Type 2 Diabetes: Design, Synthesis, and In Vitro and In Vivo Investigations of BimBH3 Peptide Analogues” (J Med Chem, 2023).

The source made the active and inactive calls. No cut-off for these calls is given here. Square brackets hold non-standard residues; d marks the D form. Peptide text beside a SMILES is read from it. * marks the point of attachment. ξ: configuration not given here. C18 diacid = O=C(O)CCCCCCCCCCCCCCCCC(=O)*; Myristoyl = CCCCCCCCCCCCCC(=O)*; ξR = N=C(N)NCCCC(N)C(=O)O Where only a bound is given, the exact number is not on record here.

What is called inhibition is the percentage by which the read-out fell short of the control. By half-life is commonly meant how long it takes for the measured level to halve. For `CCCCCCCCCCCCCC(=O)N[C@H](C(=O)N[C@@H](C)C(=O)N[C@@H](CCC(N)=O)C(=O)N[C@@H](CCC(=O)O)C(=O)N[C@@H](CC(C)C)C(=O)N[C@@H](CCCNC(=N)N)C(=O)NC(CCCNC(=N)N)C(=O)N[C@H](C(=O)NCC(=O)N[C@@H](CC(=O)O)C(=O)N[C@@H](CCC(=O)O)C(=O)N[C@@H](Cc1ccccc1)C(=O)O)[C@@H](C)CC)[C@@H](C)CC` (some centres not stated) (Myristoyl-IAQELR[ξR]IGDEF-OH), the result in data set [1], in [2], in [8], in data set [9] and in data set [10] was Active. In addition, in [3], the inhibition was < 50%. In data set [4], the Ratio IC50 was > 190. In data set [5], the “Fasting blood glucose level” value was 10.3 mmol/L. Also, the half-life in [6] is 1.02 h. In addition, the Fasting blood glucose in [7] stood at 8.3 mmol/L.

As to `CC[C@H](C)[C@H](NC(=O)CCCCCCCCCCCCCCCCC(=O)O)C(=O)N[C@@H](C)C(=O)N[C@@H](CCC(N)=O)C(=O)N[C@@H](CCC(=O)O)C(=O)N[C@@H](CC(C)C)C(=O)N[C@@H](CCCNC(=N)N)C(=O)NC(CCCNC(=N)N)C(=O)N[C@H](C(=O)NCC(=O)N[C@@H](CC(=O)O)C(=O)N[C@@H](CCC(=O)O)C(=O)N[C@@H](Cc1ccccc1)C(=O)O)[C@@H](C)CC` (some centres not stated) ({C18 diacid}-IAQELR[ξR]IGDEF-OH), the result in data set [11], in data set [1], in data set [12], in data set [2], in data set [8] and in data set [9] was Active. In addition, in data set [10], the result was Active. Besides, the inhibition in [3] is < 50%. For the same molecule, in [4], the Ratio IC50 was > 130. In addition, in data set [5], the “Fasting blood glucose level” value is 11.1 mmol/L. For the same molecule, the half-life in data set [6] is 4.51 h. In addition, the Fasting blood glucose in data set [7] was 8.7 mmol/L.
